Our source for the IC50 values is US10363257B2 (ZENITH EPIGENETICS LTD., priority 2013, dated 2019).

Bounds are passed on as bounds.

The target of assay [1] is T1, Brd4 bromodomain 1 (BRD4(1)) (Homo sapiens, UniProt O60885).
T1 construct: made in house; host or cells: E. coli BL21(DE3)
As to the kind of experiment: Inhibition of tetra-acetylated histone H4 binding to Brd4 bromodomain 1 (TR-FRET). To be noted: tetra-acetylated histone H4 peptide, first bromodomain of Brd4. The method in brief:
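His-tagged BRD4(1) from E. coli (200 nM) with biotinylated tetra-acetylated H4 peptide (25-50 nM), Eu-cryptate streptavidin and XL665 anti-His, in HEPES pH 7.4/phosphate/KF buffer, 0.2% DMSO. After 2 h at room temperature, TR-FRET 665/620 nm ratio read; IC50 from dose-response curves.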
Background: Time-resolved FRET reads energy transfer from a long-lived donor to a nearby acceptor.

Assay [2] has as its system c-myc. Put plainly: Inhibition of c-myc expression (mRNA, real-time PCR) in MV4-11 cells. Format: cell-based. As to conditions: Human AML MV4-11 cells, 3 h, cMYC mRNA. A digest of the protocol: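 MV4-11 cells treated 3 h at 37° C with increasing compound concentrations or 0.1% DMSO, in triplicate. cMYC mRNA quantified by one-step TaqMan real-time PCR, Ct normalized to internal control (Cyclophilin primers used), fold expression relative to control.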

The subject of assay [3] is human AML MV-4-11 cells. Put plainly: Inhibition of cell proliferation in MV4-11 cells (CellTiter Aqueous One). Format: cell-based. To be noted: MV4-11, 72 h. A digest of the protocol:
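Exponentially growing MV-4-11 cells (5×10^4/well) were treated immediately with two-fold dilutions of compound from 30 μM to 0.2 μM, in triplicate, for 72 h at 37° C, 5% CO2. Viability was measured by MTS absorbance at 490 nm after 3–4 h. Proliferation relative to DMSO after blank correction gave IC50.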

The subject of assay [4] is hIL-6 mRNA. As to the kind of experiment: Inhibition of hIL-6 mRNA transcription in LPS-stimulated U937 cells. As to conditions: Homo sapiens, U-937; PMA-differentiated U937 cells, 1 h pretreatment, 1 ug/mL LPS stimulation, 3 h; read-out: IL-6 activity (Inhibition of hIL-6 mRNA Transcription). Format: cell-based. A digest of the protocol:
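U937 cells differentiated 3 days with 60 ng/mL PMA, pretreated 1 h with compound (0.1% DMSO), then stimulated with 1 ug/mL E. coli LPS for 3 h at 37 °C. hIL-6 mRNA measured by one-step TaqMan RT-qPCR, normalized to cyclophilin. Fold expression relative to control; triplicate wells.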

Turning to `Cc1noc(C)c1-c1cnc2nc(N3CCOCC3)n(Cc3ccccc3)c2c1` [compound 114, 4-(1-benzyl-6-(3,5-dimethylisoxazol-4-yl)-1H-imidazo[4,5-b]pyridin-2-yl)morpholine], the IC50 in assay [1] is not above 300 nM; in assay [2] it was 300 to 3000 nM; in assay [3], 300 to 3000 nM; in assay [4] it was 300 to 3000 nM.
Take `Cc1noc(C)c1-c1cc(N)c2[nH]c(=O)n(C(C)c3ccccc3)c2c1` (stereo not drawn) [compound 115, 4-amino-6-(3,5-dimethylisoxazol-4-yl)-1-(1-phenylethyl)-1H-benzo[d]imidazol-2(3H)-one]: the IC50 in assay [1], in assay [2], in assay [3] and in assay [4] was not above 300 nM each time.
For the compound `Cc1noc(C)c1-c1cc([N+](=O)[O-])c2nc(C)n(CC3CCC3)c2c1` [compound 116, 4-(1-(cyclobutylmethyl)-2-methyl-4-nitro-1H-benzo[d]imidazol-6-yl)-3,5-dimethylisoxazole], the IC50 in assay [1] is not above 300 nM; in assay [2], not above 300 nM; in assay [3], not above 300 nM; in assay [4] it was 300 to 3000 nM.
With `Cc1noc(C)c1-c1cc([N+](=O)[O-])c2nc(C)n(CC3CCCC3)c2c1` [compound 117, 4-(1-(cyclopentylmethyl)-2-methyl-4-nitro-1H-benzo[d]imidazol-6-yl)-3,5-dimethylisoxazole], the IC50 in assay [1], in assay [2], in assay [3] and in assay [4] was not above 300 nM each time.
Consider `Cc1noc(C)c1-c1cnc2[nH]c(=O)n(CC3CC3)c2c1` [compound 118, 1-(cyclopropylmethyl)-6-(3,5-dimethylisoxazol-4-yl)-1H-imidazo[4,5-b]pyridin-2(3H)-one], for which the IC50 in assay [1] was not above 300 nM; in assay [2], 300 to 3000 nM; in assay [3], 300 to 3000 nM; in assay [4], 300 to 3000 nM.
Take `CCNc1nc2c(NC(C)=O)cc(-c3c(C)noc3C)cc2n1Cc1ccccc1` [compound 119, N-(1-benzyl-6-(3,5-dimethylisoxazol-4-yl)-2-(ethylamino)-1H-benzo[d]imidazol-4-yl)acetamide]: the IC50 in assay [1], in assay [2], in assay [3] and in assay [4] was not above 300 nM each time.
Regarding `Cc1noc(C)c1-c1cc(Br)c2nc(C)n(Cc3ccccc3)c2c1` [compound 121, 4-(1-benzyl-4-bromo-2-methyl-1H-benzo[d]imidazol-6-yl)-3,5-dimethylisoxazole], the IC50 in assay [1] is not above 300 nM; in assay [2] it was not above 300 nM; in assay [3], not above 300 nM; in assay [4], 300 to 3000 nM.
In the case of `CCn1c(=O)n(Cc2ccccc2)c2cc(-c3c(C)noc3C)ccc21` [compound 122], the IC50 is not above 300 nM in assay [1], 300 to 3000 nM in assay [2], not above 300 nM in assay [3] and 300 to 3000 nM in assay [4].
Regarding `Cc1noc(C)c1-c1cnc2nc(N3CCC3)n(Cc3ccccc3)c2c1` [compound 123, 4-(2-(azetidin-1-yl)-1-benzyl-1H-imidazo[4,5-b]pyridin-6-yl)-3,5-dimethylisoxazole], the IC50 in assay [1] is not above 300 nM; in assay [2], not above 300 nM; in assay [3], 300 to 3000 nM; in assay [4], not above 300 nM.
Consider `CCNc1nc2c([N+](=O)[O-])cc(-c3c(C)noc3C)cc2n1C(C)c1ccccc1` (stereo not drawn) [compound 127, 6-(3,5-dimethylisoxazol-4-yl)-N-ethyl-4-nitro-1-(1-phenylethyl)-1H-benzo[d]imidazol-2-amine], for which the IC50 in assay [1], in assay [2], in assay [3] and in assay [4] was not above 300 nM throughout.
Consider `Cc1noc(C)c1-c1cc(N)c2[nH]c(=O)n(Cc3ccc(O)cc3)c2c1` [compound 129, 4-amino-6-(3,5-dimethylisoxazol-4-yl)-1-(4-hydroxybenzyl)-1H-benzo[d]imidazol-2(3H)-one], for which the IC50 in assay [1] is not above 300 nM; in assay [2], not above 300 nM; in assay [3], 300 to 3000 nM; in assay [4], not above 300 nM.
With `CCNc1nc2ncc(-c3c(C)noc3C)cc2n1CC1CC1` [compound 131, 1-(cyclopropylmethyl)-6-(3,5-dimethylisoxazol-4-yl)-N-ethyl-1H-imidazo[4,5-b]pyridin-2-amine], the IC50 in assay [1] was not above 300 nM; in assay [2], 300 to 3000 nM; in assay [3], 300 to 3000 nM; in assay [4], 300 to 3000 nM.
In the case of `Cc1noc(C)c1-c1cc(N)c2nc(C)n(CC3CCC3)c2c1` [compound 132, 1-(cyclobutylmethyl)-6-(3,5-dimethylisoxazol-4-yl)-2-methyl-1H-benzo[d]imidazol-4-amine], the IC50 in assay [1] is not above 300 nM; in assay [2] it was 300 to 3000 nM; in assay [3], 300 to 3000 nM; in assay [4] it was not above 300 nM.
Take `Cc1noc(C)c1-c1cc(N)c2nc(C)n(CC3CCCC3)c2c1` [compound 133, 1-(cyclopentylmethyl)-6-(3,5-dimethylisoxazol-4-yl)-2-methyl-1H-benzo[d]imidazol-4-amine]: the IC50 is not above 300 nM in assay [1], not above 300 nM in assay [2], 300 to 3000 nM in assay [3] and not above 300 nM in assay [4].
In the case of `Cc1noc(C)c1-c1cc(N)c2nc(N3CCCC3)n(Cc3ccccc3)c2c1` [compound 140, 1-benzyl-6-(3,5-dimethylisoxazol-4-yl)-2-(pyrrolidin-1-yl)-1H-benzo[d]imidazol-4-amine], the IC50 in assay [1], in assay [2], in assay [3] and in assay [4] was not above 300 nM each time.
Take `Cc1noc(C)c1-c1cc(N)c2nc(N3CCN(C)CC3)n(Cc3ccccc3)c2c1` [compound 141, 1-benzyl-6-(3,5-dimethylisoxazol-4-yl)-2-(4-methylpiperazin-1-yl)-1H-benzo[d]imidazol-4-amine]: the IC50 in assay [1], in assay [2], in assay [3] and in assay [4] was not above 300 nM each time.
Turning to `Cc1noc(C)c1-c1cc(N)c2nc(C)n([C@@H](C)c3ccccc3)c2c1` [compound 143, (S)-6-(3,5-dimethylisoxazol-4-yl)-2-methyl-1-(1-phenylethyl)-1H-benzo[d]imidazol-4-amine], the IC50 in assay [1], in assay [2], in assay [3] and in assay [4] was not above 300 nM in each case.
With `Cc1noc(C)c1-c1cc(N)c2nc(C)n([C@H](C)c3ccccc3)c2c1` [compound 144, (R)-6-(3,5-dimethylisoxazol-4-yl)-2-methyl-1-(1-phenylethyl)-1H-benzo[d]imidazol-4-amine], the IC50 in assay [1], in assay [2], in assay [3] and in assay [4] was not above 300 nM each time.
As to `CNc1nc2ncc(-c3c(C)noc3C)cc2n1Cc1ccccc1` [compound 146, 1-benzyl-6-(3,5-dimethylisoxazol-4-yl)-N-methyl-1H-imidazo[4,5-b]pyridin-2-amine], the IC50 in assay [1], in assay [2], in assay [3] and in assay [4] was not above 300 nM each time.
Turning to `Cc1noc(C)c1-c1cc([N+](=O)[O-])c2nc(NCc3cccnc3)n(Cc3ccccc3)c2c1` [compound 148, 1-benzyl-6-(3,5-dimethylisoxazol-4-yl)-4-nitro-N-(pyridin-3-ylmethyl)-1H-benzo[d]imidazol-2-amine], the IC50 is not above 300 nM in assay [1], 300 to 3000 nM in assay [2], 300 to 3000 nM in assay [3] and not above 300 nM in assay [4].
As to `CNc1nc2c([N+](=O)[O-])cc(-c3c(C)noc3C)cc2n1Cc1ccccc1` [compound 149, 1-benzyl-6-(3,5-dimethylisoxazol-4-yl)-N-methyl-4-nitro-1H-benzo[d]imidazol-2-amine], the IC50 was not above 300 nM in assay [1], not above 300 nM in assay [2], 300 to 3000 nM in assay [3] and not above 300 nM in assay [4].
As to `CNc1nc2c(N)cc(-c3c(C)noc3C)cc2n1Cc1ccccc1` [compound 151, 1-benzyl-6-(3,5-dimethylisoxazol-4-yl)-N2-methyl-1H-benzo[d]imidazole-2,4-diamine], the IC50 in assay [1], in assay [2], in assay [3] and in assay [4] was not above 300 nM in each case.
In the case of `Cc1noc(C)c1-c1cc(N)c2nc(NCc3ccccc3)n(Cc3ccccc3)c2c1` [compound 152, N2,1-dibenzyl-6-(3,5-dimethylisoxazol-4-yl)-1H-benzo[d]imidazole-2,4-diamine], the IC50 in assay [1] was not above 300 nM; in assay [2], not above 300 nM; in assay [3], 300 to 3000 nM; in assay [4], not above 300 nM.
Take `Cc1noc(C)c1-c1cnc2nc(NCc3ccccc3)n(Cc3ccccc3)c2c1` [compound 153, N,1-dibenzyl-6-(3,5-dimethylisoxazol-4-yl)-1H-imidazo[4,5-b]pyridin-2-amine]: the IC50 in assay [1], in assay [2], in assay [3] and in assay [4] was not above 300 nM throughout.
